How the values were obtained:
[1] = Induction of CYP3A4 mRNA expression in human primary hepatocyte isolated from YND donor at 0.1 to 10 uM incubated for 72 hrs by real-time PCR analysis; assay type: ADME, cell-based; conditions: hepatocytes, dose 0.1-10 µM
[2] = Drug accumulation in female Beagle dogs at 5 mg/kg, IG measured for 7 days by LC-MS/MS analysis; assay type: ADME, organism-based, Canis lupus familiaris; conditions: dog, in vivo, po, 168 h, time 7 day
[3] = Toxicity in female Balb/c nude mouse xenografted with human NCI-H1703 cells assessed as body weight at 40 mg/kg QD, po measured every 3 days for 25 days at 10 to 60 mg/kg QD, po measured every 3 days for 28 days; assay type: organism-based; conditions: in vivo, 672 h, time 28 day
[4] = biological target: Phosphatidylinositol 4,5-bisphosphate 3-kinase catalytic subunit alpha isoform (Homo sapiens, UniProt P42336); assay: Inhibition of PI3Kalpha (unknown origin) preincubated for 15 mins and measured after 60 mins by Z-LYTE screening
[5] = Toxicity in male Balb/c nude mouse xenografted with human 22Rv1 cells assessed as body weight at 40 mg/kg QD, po measured every 3 days for 25 days at 10 to 60 mg/kg QD, po measured every 3 days for 18 days; assay type: organism-based; conditions: in vivo, 432 h, time 18 day
[6] = Plasma protein binding in Sprague-Dawley rat at 1 uM incubated for 5 hrs in HTD dialysis in the presence of verapamil by LC-MS/MS analysis relative to control; assay type: ADME, cell-free; conditions: read-out: PPB (converted)
[7] = Permeability across apical to basolateral side in human Caco-2 cells at 0.1 to 10 uM incubated for 120 mins by LC-MS/MS analysis; assay type: ADME, cell-based; conditions: caco-2, 2 h, dose 0.1-10 µM
CYP2C9 = CYP2C9 (Homo sapiens, UniProt P11712); assay: Inhibition of recombinant human CYP2C9 assessed as residual activity at 1 uM in the presence of NADPH incubated for 60 mins by LC-MS/MS analysis relative to control; assay type: ADME; conditions: read-out: Activity
[8] = Stability in Beagle dog plasma assessed as half life by LC-MS/MS analysis; assay type: ADME, cell-free, Canis lupus familiaris
CYP3A4 = CYP3A4 (Homo sapiens, UniProt P08684); assay: Inhibition of recombinant human CYP3A4 assessed as residual activity at 1 uM in the presence of NADPH incubated for 60 mins by LC-MS/MS analysis relative to control; assay type: ADME; conditions: read-out: Activity
[9] = Drug metabolism in Sprague-Dawley rat liver cells at 2 uM incubated upto 120 mins by LC-MS/MS analysis; assay type: ADME, cell-based; conditions: 2 h
LoVo = assay: Antitumor activity against human LoVo cells xenografted in female Balb/c nude mouse assessed as tumor growth inhibition at 20 mg/kg QD, po measured every 3 days for 25 days relative to control; assay type: functional; conditions: 600 h, time 25 day, read-out: TGI
Cytochrome P450 3A4 = Cytochrome P450 3A4 (Homo sapiens, UniProt P08684); assay: Inhibition of CYP3A4 in human liver microsomes using midazolam as substrate and in presence of NADPH incubated for 60 mins by LC-MS/MS analysis; assay type: ADME, Microsome
CYP2C8 = CYP2C8 (Homo sapiens, UniProt P10632); assay: Inhibition of recombinant human CYP2C8 assessed as residual activity at 1 uM in the presence of NADPH incubated for 60 mins by LC-MS/MS analysis relative to control; assay type: ADME; conditions: read-out: Activity
Hepatocyte = assay: Cytotoxicity against human primary hepatocytes isolated from DZM donor at 0.1 to 10 uM incubated for 72 hrs by cytotox-glo assay; assay type: toxicity, cell-based; conditions: dose 0.1-10 µM

Sequence of CYP2C8 (P10632 whole entry): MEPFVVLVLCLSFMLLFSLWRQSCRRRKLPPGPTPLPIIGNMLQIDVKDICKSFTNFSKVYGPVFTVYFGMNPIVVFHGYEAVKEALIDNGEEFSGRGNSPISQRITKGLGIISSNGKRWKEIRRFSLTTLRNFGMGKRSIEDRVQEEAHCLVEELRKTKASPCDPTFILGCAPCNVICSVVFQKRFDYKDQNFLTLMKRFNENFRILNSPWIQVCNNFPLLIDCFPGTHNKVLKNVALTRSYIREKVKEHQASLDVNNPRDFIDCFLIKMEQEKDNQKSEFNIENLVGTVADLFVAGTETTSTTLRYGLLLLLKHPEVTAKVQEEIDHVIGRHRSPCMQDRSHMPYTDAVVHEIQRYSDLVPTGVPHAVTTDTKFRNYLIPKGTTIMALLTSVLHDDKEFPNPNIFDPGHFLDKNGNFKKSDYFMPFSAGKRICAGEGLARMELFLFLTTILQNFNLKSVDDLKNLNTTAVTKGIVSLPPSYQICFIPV
Sequence of CYP3A4 (P08684 whole entry): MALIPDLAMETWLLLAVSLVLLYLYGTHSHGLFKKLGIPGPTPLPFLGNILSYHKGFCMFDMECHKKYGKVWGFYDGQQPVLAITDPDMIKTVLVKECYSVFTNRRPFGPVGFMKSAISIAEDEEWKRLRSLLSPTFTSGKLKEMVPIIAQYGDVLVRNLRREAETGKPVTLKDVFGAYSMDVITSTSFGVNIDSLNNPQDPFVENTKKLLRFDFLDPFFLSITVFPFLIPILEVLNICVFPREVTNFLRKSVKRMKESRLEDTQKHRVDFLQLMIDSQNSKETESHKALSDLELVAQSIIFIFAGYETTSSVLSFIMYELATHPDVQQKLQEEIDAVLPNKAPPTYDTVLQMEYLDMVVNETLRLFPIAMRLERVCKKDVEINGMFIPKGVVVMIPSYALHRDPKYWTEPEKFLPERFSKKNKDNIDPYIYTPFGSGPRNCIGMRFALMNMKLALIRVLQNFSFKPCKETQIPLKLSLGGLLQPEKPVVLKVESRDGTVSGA
Sequence of Cytochrome P450 3A4 (P08684 whole entry): as above
Sequence of Phosphatidylinositol 4,5-bisphosphate 3-kinase catalytic subunit alpha isoform (P42336 whole entry, canonical isoform): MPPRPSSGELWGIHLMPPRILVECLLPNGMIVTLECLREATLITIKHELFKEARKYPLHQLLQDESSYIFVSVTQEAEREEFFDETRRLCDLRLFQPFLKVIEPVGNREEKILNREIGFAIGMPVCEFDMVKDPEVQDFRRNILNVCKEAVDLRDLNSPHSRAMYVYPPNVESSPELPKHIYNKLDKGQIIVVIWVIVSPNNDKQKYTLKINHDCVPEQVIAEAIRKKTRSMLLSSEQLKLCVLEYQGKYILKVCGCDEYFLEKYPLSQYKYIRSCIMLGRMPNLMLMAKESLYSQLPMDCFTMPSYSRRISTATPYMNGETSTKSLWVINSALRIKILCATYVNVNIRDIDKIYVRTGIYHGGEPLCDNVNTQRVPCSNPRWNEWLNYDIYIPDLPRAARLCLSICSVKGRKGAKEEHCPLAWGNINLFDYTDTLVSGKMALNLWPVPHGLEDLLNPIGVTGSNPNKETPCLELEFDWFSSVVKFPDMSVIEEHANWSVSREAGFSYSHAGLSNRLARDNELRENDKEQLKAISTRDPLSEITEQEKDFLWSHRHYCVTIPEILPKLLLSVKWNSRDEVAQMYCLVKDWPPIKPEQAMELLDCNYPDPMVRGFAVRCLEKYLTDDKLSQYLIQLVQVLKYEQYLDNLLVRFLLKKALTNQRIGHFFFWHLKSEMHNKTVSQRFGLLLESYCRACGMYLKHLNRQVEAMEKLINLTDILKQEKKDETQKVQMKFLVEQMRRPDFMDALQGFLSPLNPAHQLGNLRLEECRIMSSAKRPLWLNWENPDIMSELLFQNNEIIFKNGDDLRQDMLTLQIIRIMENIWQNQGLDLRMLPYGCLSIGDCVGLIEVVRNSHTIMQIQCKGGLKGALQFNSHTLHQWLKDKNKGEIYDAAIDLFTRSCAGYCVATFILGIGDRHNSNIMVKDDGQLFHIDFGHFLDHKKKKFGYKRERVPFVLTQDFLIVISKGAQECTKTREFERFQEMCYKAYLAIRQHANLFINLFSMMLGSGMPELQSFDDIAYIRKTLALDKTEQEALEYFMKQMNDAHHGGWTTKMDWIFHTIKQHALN
Sequence of CYP2C9 (P11712 whole entry): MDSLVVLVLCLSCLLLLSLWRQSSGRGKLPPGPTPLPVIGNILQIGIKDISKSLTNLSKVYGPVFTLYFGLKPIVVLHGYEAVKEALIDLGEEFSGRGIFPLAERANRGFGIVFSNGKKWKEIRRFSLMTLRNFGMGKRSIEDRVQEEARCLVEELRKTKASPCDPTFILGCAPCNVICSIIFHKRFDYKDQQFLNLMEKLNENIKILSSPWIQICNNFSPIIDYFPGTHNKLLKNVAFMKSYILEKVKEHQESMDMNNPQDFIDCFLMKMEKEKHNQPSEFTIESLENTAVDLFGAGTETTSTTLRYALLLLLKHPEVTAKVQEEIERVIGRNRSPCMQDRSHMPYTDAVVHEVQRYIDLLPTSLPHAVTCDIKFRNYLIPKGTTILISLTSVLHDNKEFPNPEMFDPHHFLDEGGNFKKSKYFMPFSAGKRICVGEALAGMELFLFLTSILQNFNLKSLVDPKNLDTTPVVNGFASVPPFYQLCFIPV

Activity [1]: Active
Drug uptake [2]: Active
IC50 [4]: 3.58 µM
fraction unbound at 5 h, 1 µM [6]: 0.136
permeability [7]: Permeable
activity at 1 h, 1 µM (CYP2C9): 102%
half-life [8]: > 2 h
activity at 1 h, 1 µM (CYP3A4): 73.3%
Drug metabolism [9]: metabolite_detected
IC50 (Cytochrome P450 3A4): 48.4 µM
activity at 1 h, 1 µM (CYP2C8): 16.3%
SMILES: Cc1nn(-c2cccnc2)c(C)c1-c1cc(N2CC3CCC(C2)O3)nc2c(-c3ccn[nH]3)cnn12.O=C(O)/C=C/C(=O)O
Activity [3]: Toxic
Activity [5]: Non-toxic
inhibition in vivo at 20 mg/kg (LoVo): 26.9%
Activity (Hepatocyte): Non-toxic
